# Experimental data: patent US20100004234A1, “SPECIFIC KINASE INHIBITORS” (Kosan Biosciences Incorporated, priority 2004, published 2010)
# Like-named read-outs stand apart in the source and are kept apart here.
# Key:
# [1] = tested on: DU4475 (Human breast, B-Raf V599E); experiment: Cell proliferation assay (Cell Titer Glo); type: cell-based; conditions: Homo sapiens, DU-4475, read-out: Kinase Inhibitor IC50
# Description: (§1) In one illustrative method, cells are treated with various concentrations of the inhibitor in 96 well plates, incubated at 37° C./5% CO2 for three days, and analyzed using the Cell Titer Glo kit (Promega).
# [2] = tested on: P815 (Mouse mastocytoma, KIT D814Y); experiment: Cell proliferation assay (Cell Titer Glo); type: cell-based; conditions: Mus musculus
# Description: as §1
# [3] = tested on: MV4-11 (Human leukemia Flt3-ITD); experiment: Cell proliferation assay (Cell Titer Glo); type: cell-based; conditions: Homo sapiens
# Description: as §1
# [4] = tested on: ASZ001 (Basal cell carcinoma); experiment: Cell proliferation assay (Cell Titer Glo); type: cell-based
# Description: as §1
# [5] = tested on: A549 (NSCLC, B-Raf wild-type); experiment: Cell proliferation assay (Cell Titer Glo); type: cell-based; conditions: Homo sapiens, A549, read-out: Kinase Inhibitor IC50
# Description: as §1
# [6] = tested on: EOL-1 (Human leukemia FLP1L1-PDGFRA); experiment: Cell proliferation assay (Cell Titer Glo); type: cell-based; conditions: Homo sapiens, EOL1, read-out: Kinase Inhibitor IC50
# Description: as §1
# [7] = tested on: WM266-4 (Human melanoma, B-Raf V599D); experiment: Cell proliferation assay (Cell Titer Glo); type: cell-based; conditions: Homo sapiens, WM 266-4, read-out: Kinase Inhibitor IC50
# Description: as §1
# [8] = tested on: A375 (Human melanoma, B-Raf V599E); experiment: Cell proliferation assay (Cell Titer Glo); type: cell-based; conditions: Homo sapiens, A-375, read-out: Kinase Inhibitor IC50
# Description: as §1
# A375 xenograft = experiment: B-Raf mutant melanoma (A375) xenograft model; type: in vivo
# From the text: The sensitivity of B-Raf mutated cancer cell lines to RALs was confirmed in a B-Raf mutant melanoma (A375) xenograft model.
# ERK2 = ERK2 (UniProt P28482); type: biochemical; parameters: "the target Cys 172 residue; conditions: Table 7
# Description: In either case, the time dependent inactivation can be dampened by the presence of a competing substrate, in this case ATP.
# For covalent inhibitors, plots of log (activity) versus time provide apparent first-order rate constants (kobsd) of enzyme activity loss. If these assays are performed at varying concentrations of inhibitor, a series of first-order plots is obtained and kobsd obtained at each inhibitor concentration. […] Such molecules may be competitive inhibitors but should not show time-dependent inactivation.
# Inhibition progress curve analysis was performed using continuous, colorimetric, or fluorimetric assays. All experiments were done at 1 mM ATP, with the exception of KDR (at 5 mM ATP).
# (§2) MEK1 assays were performed using pre-incubation experiments with radioactive [^32P]ATP and filter binding of product. All other kinases were analyzed using progress curve analysis from a continuous spectrophotometric assay.
# MEK1 = MEK1 (Homo sapiens, UniProt Q02750); experiment: Time-dependent kinase inhibition kinetics (pre-incubation, [32P]ATP filter binding); type: biochemical
# Description: Typically, one measures the increase in inhibition of protein kinase activity in the presence of inhibitor over time. In one method, aliquots of a “pre-incubation” reaction mixture containing enzyme and inhibitor are assayed for activity (initial velocities) over time; increased inhibition or decreased initial velocities will be observed over time as the Michael adduct forms (Walsh, C, Enzyme Reaction Mechanisms, W.H. Freeman & Co., 1979, pp 86-94). In a second method, the time dependent loss of activity is measured as “progress curves” that measure and analyze product formed (e.g. ADP) versus time (Morrison & Walsh, Adv. Enzymol Relat Areas Mol. Biol. 1988, 61, 201-301). In either case, the time dependent inactivation can be dampened by the presence of a competing substrate, in this case ATP.
# MEK1 and many other protein kinases that can be targets of the compounds useful in the methods of the invention can be obtained commercially (Invitrogen; Carlsbad, Calif.) or prepared using standard molecular biology techniques. After activation by phosphorylation, they are assayed for their ability to phosphorylate a target kinase or surrogate substrate. For example, MEK1 can be assayed in a mixture containing MEK1 (30 nM) and ERK1 (2 μM), [γ-^32P]ATP (10 uM) and MgCl2 in Mops buffer pH 7.6. Phosphorylation can be measured by isolating [γ-^32P]-phosphorylated ERK1 on phosphocellulose paper, and counting radioactive product. Alternatively, a coupled enzyme system may be used in which a product of the kinase reaction, such as ADP, is measured by analysis with a secondary system that converts that product (e.g. ADP) to an easily measurable entity (e.g. NADH); often, such coupled systems can be measured by convenient spectrophotometry assays.
# To measure time-dependent inhibition using the “pre-incubation method”, MEK1 (or other kinase) is incubated with varying amounts of the lactone inhibitor; […]. Aliquots are removed at various times, added to a solution containing substrates [γ-^32P]ATP, ERK1 (or other substrate), and the other components of the reaction, and initial rates are determined as a measure of remaining enzyme activity.
# For covalent inhibitors, plots of log (activity) versus time provide apparent first-order rate constants (kobsd) of enzyme activity loss. If these assays are performed at varying concentrations of inhibitor, a series of first-order plots is obtained and kobsd obtained at each inhibitor concentration. To measure time-dependent inhibition using the “progress-curve method” (see references cited above and Kuzmic et al., Methods Enzymol 2004; 383: 366-81), ERK (or other kinase) is treated with varying amounts of the lactone inhibitor, and the formation of ADP is measured continuously by a coupled assay. […] Such molecules may be competitive inhibitors but should not show time-dependent inactivation.
# Those of skill in the art will recognize that within the set of compounds useful in the methods of the invention, significant variability in specificity can be achieved, allowing one to identify optimal compounds for different applications. Inhibition progress curve analysis was performed using continuous, colorimetric, or fluorimetric assays. All experiments were done at 1 mM ATP, with the exception of KDR (at 5 mM ATP).
# as §2
# [9] = tested on: SKOV3 (ovarian cancer cell line, wild-type B-Raf); experiment: Cell proliferation assay; type: cell-based; conditions: Homo sapiens, SK-OV-3, read-out: Cell Line IC50 SKOV3
# Description: as §1
# COLO829 is a human melanoma cell line. HT29 is a human colon cancer cell line. Both cell lines have a V600E B-Raf mutation. SKOV3 is an ovarian cancer cell line having wild-type B-Raf. EKR2 (extra-cellular signal regulated kinase 2) is a kinase in the Ras/B-Raf MAP kinase cascade pathway.
# MEK1, sequence (Q02750 whole entry): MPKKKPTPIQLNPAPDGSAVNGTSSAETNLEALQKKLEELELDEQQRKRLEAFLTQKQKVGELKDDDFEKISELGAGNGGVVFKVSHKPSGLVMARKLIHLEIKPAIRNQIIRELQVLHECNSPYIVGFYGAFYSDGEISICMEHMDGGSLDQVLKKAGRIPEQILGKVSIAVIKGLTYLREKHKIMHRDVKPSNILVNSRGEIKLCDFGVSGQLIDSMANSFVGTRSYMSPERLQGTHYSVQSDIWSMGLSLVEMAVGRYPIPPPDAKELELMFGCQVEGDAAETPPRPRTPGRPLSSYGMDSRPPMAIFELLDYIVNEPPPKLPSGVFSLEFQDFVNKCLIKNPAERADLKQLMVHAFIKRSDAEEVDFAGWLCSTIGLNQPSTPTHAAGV
structure (smiles),measurement,setting,value
"COc1cc(O)c2c(c1)[C@H]1O[C@@H]1C[C@H](O)[C@H](O)C(=O)/C=C\C[C@H](C)OC2=O [Hypothemycin, hypothemycin]",IC50,[1],18 nM
same,GI50,[2]; P815,310 nM
same,IC50,"[2]; P815, read-out: Kinase Inhibitor IC50",310 nM
same,GI50,[3]; MV4-11,6 nM
same,IC50,"[3]; MV4-11, read-out: Kinase Inhibitor IC50",5.5 nM
same,IC50,"[4]; ASZ001 (Basal cell carcinoma), read-out: Kinase Inhibitor IC50",100 nM
same,IC50,"[4]; BCC cell line ASZ001 in culture, read-out: IC50",~100 nM
same,IC50,[5],6000 nM
same,IC50,[6],0.41 nM
same,IC50,[7],40 nM
same,IC50,[8],180 nM
same,growth of the A375 xenograft relative to vehicle alone,"A375 xenograft; administered daily at 15 mg/kg or 20 mg/kg, FIG. 6",significantly inhibits the growth
same,A375 xenograft growth inhibition compared with Bayer 43-9006,A375 xenograft; hypothemycin at both dosages vs Bayer 43-9006 25 mg/kg or 50 mg/kg every other day,significantly better
same,ERK2 Inhibition kinact.,ERK2,5 ± 2 × 10^−3 sec^−1
same,Ki,ERK2; read-out: ERK2 Inhibition Ki,1900 ± 1100 nM
same,kinact/KI,MEK1,130000 M⁻¹ s⁻¹
same,Ki,MEK1; 1 mM ATP,19 nM
same,kinact,"MEK1; 1 mM ATP, read-out: kinact",0.003 s⁻¹
same,IC50,[9],~4000 nM
